ChEMBL document CHEMBL5550141, “Photo-regulated PROTACs: A novel tool for temporal control of targeted protein degradation” (Bioorg Med Chem Lett, 2024)
Active and inactive are the calls of the source. The rule behind the calls is not given here.

What was measured:
[1] = target: T1, Protein cereblon/Bromodomain-containing protein 4 (Homo sapiens) (UniProt O60885+Q96SW2); assay: PROTAC activity at CRBN/BRD4 in human MCF7 cells assessed as induction of BRD4 degradation measured after 6 to 24 hrs by Western blot analysis; type: cell-based; details: dose <= 1.0 µM, time 6-24 hrs
[2] = target: T1, Protein cereblon/Bromodomain-containing protein 4 (Homo sapiens); assay: PROTAC activity at CRBN/BRD4 in human MCF7 cells assessed as induction of BRD4 degradation at 1 uM measured after 6 to 24 hrs by Western blot analysis relative to control; type: cell-based; details: time 6-24 hrs
[3] = target: T1, Protein cereblon/Bromodomain-containing protein 4 (Homo sapiens); assay: PROTAC activity at CRBN/BRD4 in human MCF7 cells assessed as induction of BRD4 degradation at 1 uM measured after 18 hrs in presence of MG132 by Western blot analysis; type: cell-based
[4] = target: T1, Protein cereblon/Bromodomain-containing protein 4 (Homo sapiens); assay: PROTAC activity at CRBN/BRD4 in human MCF7 cells assessed as induction of BRD4 degradation at 1 uM measured after 18 hrs in presence of […] by Western blot analysis; type: cell-based
[5] = target: T1, Protein cereblon/Bromodomain-containing protein 4 (Homo sapiens); assay: PROTAC activity at CRBN/BRD4 in human MCF7 cells assessed as induction of BRD4 degradation at 1 uM measured after 18 hrs in presence of MLN4924 by Western blot analysis; type: cell-based
[6] = Stability of the compound assessed as UV-light induced degradation measured after 30 mins by HPLC analysis; type: physicochemical; details: 0.5 h
[7] = target: T1, Protein cereblon/Bromodomain-containing protein 4 (Homo sapiens); assay: PROTAC activity at CRBN/BRD4 in human MCF7 cells assessed as induction of BRD4 degradation at 1 uM measured after 24 hrs by Western blot analysis relative to control; type: cell-based
[8] = target: T1, Protein cereblon/Bromodomain-containing protein 4 (Homo sapiens); assay: PROTAC activity at CRBN/BRD4 in human MCF7 cells assessed as induction of BRD4 degradation at 1 uM measured after 24 hrs by Western blot analysis; type: cell-based

T1 sequence (Q96SW2 whole entry, looked up, other chains not shown): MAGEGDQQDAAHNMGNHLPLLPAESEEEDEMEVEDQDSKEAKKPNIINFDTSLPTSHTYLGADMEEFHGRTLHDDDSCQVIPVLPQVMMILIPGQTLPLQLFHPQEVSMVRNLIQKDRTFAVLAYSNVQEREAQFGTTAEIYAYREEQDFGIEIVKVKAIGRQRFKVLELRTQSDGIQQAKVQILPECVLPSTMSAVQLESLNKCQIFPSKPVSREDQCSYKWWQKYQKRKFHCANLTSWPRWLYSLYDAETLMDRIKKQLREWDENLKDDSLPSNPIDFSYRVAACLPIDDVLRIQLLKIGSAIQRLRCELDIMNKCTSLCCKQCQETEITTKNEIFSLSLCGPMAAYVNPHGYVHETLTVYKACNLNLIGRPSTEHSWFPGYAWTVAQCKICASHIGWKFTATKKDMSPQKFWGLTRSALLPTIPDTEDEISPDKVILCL

| SMILES | Activity [1] | Activity [2] | Activity [3] | Activity [4] | Activity [5] | Stability [6] | Activity [7] | Activity [8] |
| --- | --- | --- | --- | --- | --- | --- | --- | --- |
| Cc1sc2c(c1C)C(c1ccc(Cl)cc1)=N[C@@H](CC(=O)NCCCNC(=O)OCc1cc(OCCCNc3cccc4c3C(=O)N(C3CCC(=O)NC3=O)C4=O)ccc1[N+](=O)[O-])c1nnc(C)n1-2 (some centres undefined) | Dose-Dependent Effect | > 80% | inactive | inactive | inactive | Unstable | > 80% | Active |
| Cc1sc2c(c1C)C(c1ccc(Cl)cc1)=N[C@@H](CC(=O)NCCCNC(=O)OCc1cc(OCCCNC(=O)CNc3cccc4c3C(=O)N(C3CCC(=O)NC3=O)C4=O)ccc1[N+](=O)[O-])c1nnc(C)n1-2 (some centres undefined) |  |  | inactive | inactive | inactive |  | > 80% | Active |
| Cc1sc2c(c1C)C(c1ccc(Cl)cc1)=N[C@@H](CC(=O)NCCNC(=O)OCc1cc(OCCCNc3cccc4c3C(=O)N(C3CCC(=O)NC3=O)C4=O)ccc1[N+](=O)[O-])c1nnc(C)n1-2 (some centres undefined) | Dose-Dependent Effect |  | inactive | inactive | inactive |  | > 80% | Active |
